Reference: PubChem BioAssay AID1963842 (Molecular Pharmacology Branch, DTP, NCI, 2024)

System: 677734-321-R-J1-PDC complex spheroid viability
Assay: Anticancer human tumor 677734-321-R-J1-PDC patient-derived soft tissue sarcoma cell line growth inhibition [POLQ]
Settings: for IC50: curve of first compound; for viability, T/C: stronger effect = lower value
Outline: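 Complex spheroid viability model combining PDC tumour cells with endothelial (HUVEC) and MSC stromal cells. Novobiocin, ART-558 or RP6685 were tested singly and in combination with standard and investigational anticancer drugs. Each was titrated in half-log steps from near clinical Cmax, or from 10 microM where Cmax was unknown.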

[1] = second compound 0.0316 µM, first compound 0.0316 µM
[2] = second compound 0.0316 µM, first compound 0.1 µM
[3] = second compound 0.0316 µM, first compound 0.316 µM
[4] = second compound 0.0316 µM, first compound 1 µM
[5] = second compound 0.0316 µM, first compound 3.16 µM
[6] = second compound 0.0316 µM, first compound 10 µM
[7] = second compound 0.1 µM, first compound 0.0316 µM
[8] = second compound 0.1 µM, first compound 0.1 µM
[9] = second compound 0.1 µM, first compound 0.316 µM
[10] = second compound 0.1 µM, first compound 1 µM
[11] = second compound 0.1 µM, first compound 3.16 µM
[12] = second compound 0.1 µM, first compound 10 µM
[13] = second compound 0.316 µM, first compound 0.0316 µM
[14] = second compound 0.316 µM, first compound 0.1 µM
[15] = second compound 0.316 µM, first compound 0.316 µM
[16] = second compound 0.316 µM, first compound 1 µM
[17] = second compound 0.316 µM, first compound 3.16 µM
[18] = second compound 0.316 µM, first compound 10 µM
[19] = second compound 1 µM, first compound 0.0316 µM
[20] = second compound 1 µM, first compound 0.1 µM
[21] = second compound 1 µM, first compound 0.316 µM
[22] = second compound 1 µM, first compound 1 µM
[23] = second compound 1 µM, first compound 3.16 µM
[24] = second compound 1 µM, first compound 10 µM
[25] = second compound 3.16 µM, first compound 0.0316 µM
[26] = second compound 3.16 µM, first compound 0.1 µM
[27] = second compound 3.16 µM, first compound 0.316 µM
[28] = second compound 3.16 µM, first compound 1 µM
[29] = second compound 3.16 µM, first compound 3.16 µM
[30] = second compound 3.16 µM, first compound 10 µM
[31] = second compound 10 µM, first compound 0.0316 µM
[32] = second compound 10 µM, first compound 0.1 µM
[33] = second compound 10 µM, first compound 0.316 µM
[34] = second compound 10 µM, first compound 1 µM
[35] = second compound 10 µM, first compound 3.16 µM
[36] = second compound 10 µM, first compound 10 µM
[37] = second compound 0.0316 µM, first compound 0.00316 µM
[38] = second compound 0.0316 µM, first compound 0.01 µM
[39] = second compound 0.1 µM, first compound 0.00316 µM
[40] = second compound 0.1 µM, first compound 0.01 µM
[41] = second compound 0.316 µM, first compound 0.00316 µM
[42] = second compound 0.316 µM, first compound 0.01 µM
[43] = second compound 1 µM, first compound 0.00316 µM
[44] = second compound 1 µM, first compound 0.01 µM
[45] = second compound 3.16 µM, first compound 0.00316 µM
[46] = second compound 3.16 µM, first compound 0.01 µM
[47] = second compound 10 µM, first compound 0.00316 µM
[48] = second compound 10 µM, first compound 0.01 µM
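Note: spheroids exposed to compounds for one week.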
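Throughout, for viability, T/C: 100% = vehicle DMSO treated spheroids.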

CNCc1ccc(-c2[nH]c3cc(F)cc4c3c2CCNC4=O)cc1 + Cc1cccc(N(C)C(=O)C2C(O)CCN2c2nc(C)cc(C(F)(F)F)c2C#N)c1
IC50 (second compound 0.0316 µM): > 10000 nM
IC50 (second compound 0.1 µM): > 10000 nM
IC50 (second compound 0.316 µM): > 10000 nM
IC50 (second compound 1 µM): > 10000 nM
IC50 (second compound 3.16 µM): > 10000 nM
IC50 (second compound 10 µM): > 10000 nM
viability, T/C [1]: 107%
viability, T/C [2]: 104%
viability, T/C [3]: 107%
viability, T/C [4]: 106%
viability, T/C [5]: 107%
viability, T/C [6]: 107%
viability, T/C [7]: 108%
viability, T/C [8]: 110%
viability, T/C [9]: 103%
viability, T/C [10]: 101%
viability, T/C [11]: 106%
viability, T/C [12]: 105%
viability, T/C [13]: 120%
viability, T/C [14]: 104%
viability, T/C [15]: 104%
viability, T/C [16]: 105%
viability, T/C [17]: 113%
viability, T/C [18]: 98.9%
viability, T/C [19]: 108%
viability, T/C [20]: 94.9%
viability, T/C [21]: 104%
viability, T/C [22]: 114%
viability, T/C [23]: 106%
viability, T/C [24]: 107%
viability, T/C [25]: 110%
viability, T/C [26]: 96.5%
viability, T/C [27]: 102%
viability, T/C [28]: 108%
viability, T/C [29]: 107%
viability, T/C [30]: 99.3%
viability, T/C [31]: 109%
viability, T/C [32]: 95.2%
viability, T/C [33]: 104%
viability, T/C [34]: 101%
viability, T/C [35]: 91.4%
viability, T/C [36]: 98.6%

COc1cccc(OCCCN)c1-c1cc(Nc2cnc(C#N)cn2)n[nH]1 + Cc1cccc(N(C)C(=O)C2C(O)CCN2c2nc(C)cc(C(F)(F)F)c2C#N)c1
IC50 (second compound 0.0316 µM): 5.14 nM
IC50 (second compound 0.1 µM): 5.54 nM
IC50 (second compound 0.316 µM): 5.35 nM
IC50 (second compound 1 µM): 3.49 nM
IC50 (second compound 3.16 µM): 4.87 nM
IC50 (second compound 10 µM): < 3.16 nM
viability, T/C [37]: 80.6%
viability, T/C [38]: 8.11%
viability, T/C [1]: 6.8%
viability, T/C [2]: 5.31%
viability, T/C [3]: 4.65%
viability, T/C [4]: 4.03%
viability, T/C [39]: 89.8%
viability, T/C [40]: 8.11%
viability, T/C [7]: 6.65%
viability, T/C [8]: 5.48%
viability, T/C [9]: 6.82%
viability, T/C [10]: 4.61%
viability, T/C [41]: 84.1%
viability, T/C [42]: 9.52%
viability, T/C [13]: 6.22%
viability, T/C [14]: 5.29%
viability, T/C [15]: 5.08%
viability, T/C [16]: 4.86%
viability, T/C [43]: 53.9%
viability, T/C [44]: 8.32%
viability, T/C [19]: 6.96%
viability, T/C [20]: 6.49%
viability, T/C [21]: 5.31%
viability, T/C [22]: 4.98%
viability, T/C [45]: 70.3%
viability, T/C [46]: 16.3%
viability, T/C [25]: 7.33%
viability, T/C [26]: 5.44%
viability, T/C [27]: 6.24%
viability, T/C [28]: 4.93%
viability, T/C [47]: 48.1%
viability, T/C [48]: 11.5%
viability, T/C [31]: 7.44%
viability, T/C [32]: 5.3%
viability, T/C [33]: 6.55%
viability, T/C [34]: 4.1%

Cn1ncnc1[C@H]1c2n[nH]c(=O)c3cc(F)cc(c23)N[C@@H]1c1ccc(F)cc1 + Cc1cccc(N(C)C(=O)C2C(O)CCN2c2nc(C)cc(C(F)(F)F)c2C#N)c1
IC50 (second compound 0.0316 µM): > 100 nM
IC50 (second compound 0.1 µM): > 100 nM
IC50 (second compound 0.316 µM): > 100 nM
IC50 (second compound 1 µM): > 100 nM
IC50 (second compound 3.16 µM): > 100 nM
IC50 (second compound 10 µM): > 100 nM
viability, T/C (second compound 0.0316 µM, first compound 0.000316 µM): 110%
viability, T/C (second compound 0.0316 µM, first compound 0.001 µM): 102%
viability, T/C [37]: 100%
viability, T/C [38]: 107%
viability, T/C [1]: 104%
viability, T/C [2]: 87.3%
viability, T/C (second compound 0.1 µM, first compound 0.000316 µM): 103%
viability, T/C (second compound 0.1 µM, first compound 0.001 µM): 99.7%
viability, T/C [39]: 102%
viability, T/C [40]: 107%
viability, T/C [7]: 101%
viability, T/C [8]: 95.1%
viability, T/C (second compound 0.316 µM, first compound 0.000316 µM): 103%
viability, T/C (second compound 0.316 µM, first compound 0.001 µM): 97.8%
viability, T/C [41]: 102%
viability, T/C [42]: 102%
viability, T/C [13]: 102%
viability, T/C [14]: 96.2%
viability, T/C (second compound 1 µM, first compound 0.000316 µM): 109%
viability, T/C (second compound 1 µM, first compound 0.001 µM): 96.4%
viability, T/C [43]: 96.9%
viability, T/C [44]: 103%
viability, T/C [19]: 96%
viability, T/C [20]: 94.5%
viability, T/C (second compound 3.16 µM, first compound 0.000316 µM): 100%
viability, T/C (second compound 3.16 µM, first compound 0.001 µM): 98.7%
viability, T/C [45]: 101%
viability, T/C [46]: 99%
viability, T/C [25]: 102%
viability, T/C [26]: 91.3%
viability, T/C (second compound 10 µM, first compound 0.000316 µM): 103%
viability, T/C (second compound 10 µM, first compound 0.001 µM): 92.1%
viability, T/C [47]: 101%
viability, T/C [48]: 97.9%
viability, T/C [31]: 91.3%
viability, T/C [32]: 91.1%

O=C(c1cc(Cc2n[nH]c(=O)c3ccccc23)ccc1F)N1CCN(C(=O)C2CC2)CC1 + Cc1cccc(N(C)C(=O)C2C(O)CCN2c2nc(C)cc(C(F)(F)F)c2C#N)c1
IC50 (second compound 0.0316 µM): > 10000 nM
IC50 (second compound 0.1 µM): > 10000 nM
IC50 (second compound 0.316 µM): > 10000 nM
IC50 (second compound 1 µM): > 10000 nM
IC50 (second compound 3.16 µM): > 10000 nM
IC50 (second compound 10 µM): > 10000 nM
viability, T/C [1]: 108%
viability, T/C [2]: 95.2%
viability, T/C [3]: 101%
viability, T/C [4]: 97.2%
viability, T/C [5]: 96.8%
viability, T/C [6]: 83%
viability, T/C [7]: 105%
viability, T/C [8]: 103%
viability, T/C [9]: 101%
viability, T/C [10]: 99.3%
viability, T/C [11]: 95.4%
viability, T/C [12]: 80%
viability, T/C [13]: 103%
viability, T/C [14]: 103%
viability, T/C [15]: 97.5%
viability, T/C [16]: 94.6%
viability, T/C [17]: 100%
viability, T/C [18]: 80.2%
viability, T/C [19]: 115%
viability, T/C [20]: 93.3%
viability, T/C [21]: 102%
viability, T/C [22]: 103%
viability, T/C [23]: 100%
viability, T/C [24]: 84.7%
viability, T/C [25]: 110%
viability, T/C [26]: 95.8%
viability, T/C [27]: 103%
viability, T/C [28]: 99.6%
viability, T/C [29]: 98.9%
viability, T/C [30]: 81.6%
viability, T/C [31]: 99.8%
viability, T/C [32]: 101%
viability, T/C [33]: 94.1%
viability, T/C [34]: 96.4%
viability, T/C [35]: 89.4%
viability, T/C [36]: 80.4%
